# US12409181B2, “Treatment for aortic aneurysms” (THE REGENTS OF THE UNIVERSITY OF CALIFORNIA, priority 2019, dated 2025)
# “Also recorded” adds a separate entry of the source.
# Assays:
# aortic rings = assay: Arterial ring isometric tension measurements; design: species or system mice
# Procedure: Arterial Ring Isometric Tension Measurements. Isometric tension in aortas was measured as previously described,^64 with minor modifications. Thoracic aortas were dissected in Krebs-Henseleit solution, cleaned of any adherent connective tissue, and cut into 1.5-2 mm segments. Rings with intact endothelium were mounted in a wire myograph over 40 μm wires, set at a resting tension of 0.5 g, and allowed to equilibrate at 37° C. for 45 min with intermittent washes every 15 min. After equilibration, aortas were treated with 40 mM K^+-solution. For vascular relaxation by acetylcholine (Sigma) or 8-(4-chlorophenylthio)cGMP (8-CPT-cGMP, BioLog), each aortic ring was pre-contracted to generate ˜0.15 g contraction by treatment with prostaglandin-F2α (PGF2α 2-8 μM, Thermo-Fisher). The degree of relaxation was calculated as a percent of PGF2α-induced contraction.
# human aortic SMCs [1] = assay: H2O2 production by Amplex Red in SMCs expressing PKG1^RQ; format: cell-based; details: human aortic SMCs infected with PKG1^RQ adenovirus
# Procedure: (§1) SMC Culture and Adenovirus Infection. Murine aortic SMCs were isolated from the aortas of 8-12 week old wild type and PKG1^RQ/+ mice and were cultured in Smooth Muscle Basal Media (SmBM) containing 20% FBS, pyruvate, HEPES, L-glutamine, penicillin/streptomycin and growth factors (SmBM Bullet kit; CC-4149 from Lonza), as previously described.^69 Two independent cell isolates from wild type and PKG1^RQ mice were used at passage one. Human primary aortic SMCs were purchased from Lifeline Cell Technology (Frederick, MD, FC-0015) and cultured in VascuLife Basal Medium supplemented with recombinant epidermal growth factor, insulin, and fibroblast growth factor-b, ascorbic acid, L-glutamine, 20% FBS, gentamycin, and amphotericin (Vasculife SMC LifeFactors kit; LS-1040 from Lifeline Technologies). Human SMCs were used at passages 3-6. […]
# Amplex Red and NADPH Oxidase Assays. Primary murine SMCs isolated from wild type or PKG1^RQ/+ aortas, and human SMCs infected with control, wild type, or mutant PKG1^RQ virus, were seeded at 4×10^4 cells/well in 96-well plates, and H2O2 production was measured using an Amplex Red/Hydrogen Peroxide/Peroxidase Assay Kit (Thermo Fischer Scientific). […] Fluorescence was measured every min in a BioTek Synergy 2 plate reader, using 540 nm excitation and 590 nm emission wavelengths.
# human aortic SMCs [2] = assay: DNA oxidation by 8-OH-deoxyguanosine immunofluorescence staining in SMCs; format: cell-based; details: human aortic SMCs expressing PKG1^RQ
# Procedure: as §1, with “3-6. Adenovirus was generated using the ViraPower Adenoviral Expression System (Thermo Fisher).^67 Human SMCs were infected with virus expressing wild type or mutant human PKG1α (containing the R177Q mutation); the MOI was 3-10 and titrated to produce wild type and mutant kinase at 2-3 fold the level of endogenous PKG1 at 72 h post infection.” for “3-6.”
# (§2) SMC Immunofluorescence Staining. […] Images were analyzed with a Keyence BZ-X700 fluorescence microscope.
# human aortic SMCs [3] = assay: SMC proliferation by BrdU uptake; format: cell-based
# Procedure: as §1, with “3-6. Adenovirus was generated using the ViraPower Adenoviral Expression System (Thermo Fisher).^67 Human SMCs were infected with virus expressing wild type or mutant human PKG1α (containing the R177Q mutation); the MOI was 3-10 and titrated to produce wild type and mutant kinase at 2-3 fold the level of endogenous PKG1 at 72 h post infection.” for “3-6.”
# as §2
# human aortic SMCs [4] = assay: SMC apoptosis by cleaved caspase-3 staining; format: cell-based; details: human SMCs expressing PKG1^RQ
# Procedure: as §1, with “3-6. Adenovirus was generated using the ViraPower Adenoviral Expression System (Thermo Fisher).^67 Human SMCs were infected with virus expressing wild type or mutant human PKG1α (containing the R177Q mutation); the MOI was 3-10 and titrated to produce wild type and mutant kinase at 2-3 fold the level of endogenous PKG1 at 72 h post infection.” for “3-6.”
# as §2
# Prkg1^RQ/+ mice = assay: Transverse aortic constriction (TAC) with N-acetylcysteine treatment; format: in vivo
# human aortic SMCs [5] = assay: Western blots (VASP phosphorylation, JNK activation) and OxyBlot protein oxidation in human SMCs; format: cell-based; details: human aortic SMCs, combined with low concentrations of an NO donor
# Procedure: Western Blotting. Following anesthesia with ketamine (100 mg/kg) and xylazine (10 mg/kg) by intraperitoneal injection, mice were exsanguinated and perfused with ice-cold phosphate-buffered saline (PBS) containing protease inhibitor cocktail (Calbiochem #539131). Aortas were excised, cleaned from surrounding tissue, and snap-frozen in liquid nitrogen within 15 min of euthanasia. Frozen aortas were pulverized and sonicated (3×10 sec) in ice-cold RIPA buffer (50 mM NaCl, 50 mM Tris-HCl, pH 8, 1% NP-40, 0.1% SDS, 0.5% sodium deoxycholate) supplemented with 1 mM NaF, 1 mM β-glycerolphosphate, and protease inhibitor cocktail. Western blots were developed with primary antibodies specific for PKG1 (1:1000, Cell Signaling Technology; 3248, […] (1:1000, Cell Signaling Technology; 3114), GAPDH (1:1000, Cell Signaling Technology; 2118), β-actin (1:5000, Santa Cruz Biotechnology; 47778), and JNK-phospho-Thr^183/Tyr^185 (1:1000, Cell Signaling Technology; 9251). Blots were developed and visualized with enhanced chemiluminescence using LI-COR Odyssey (with ImageStudio, V5) or with film in the linear range of exposure (with densitometry scanning using ImageJ (V1.51). Protein carbonyl groups (aldehydes and ketones) were detected using the OxyBlot™ Protein Oxidation Detection Kit (Millipore EMD; S7150). Unprocessed scans of blots are provided in the Source Data file.
# SMC Culture and Adenovirus Infection. Murine aortic SMCs were isolated from the aortas of 8-12 week old wild type and PKG1^RQ/+ mice and were cultured in Smooth Muscle Basal Media (SmBM) containing 20% FBS, pyruvate, HEPES, L-glutamine, penicillin/streptomycin and growth factors (SmBM Bullet kit; CC-4149 from Lonza), as previously described.^69 Two independent cell isolates from wild type and PKG1^RQ mice were used at passage one. Human primary aortic SMCs were purchased from Lifeline Cell Technology (Frederick, MD, FC-0015) and cultured in VascuLife Basal Medium supplemented with recombinant epidermal growth factor, insulin, and fibroblast growth factor-b, ascorbic acid, L-glutamine, 20% FBS, gentamycin, and amphotericin (Vasculife SMC LifeFactors kit; LS-1040 from Lifeline Technologies). Human SMCs were used at passages 3-6. Adenovirus was generated using the ViraPower Adenoviral Expression System (Thermo Fisher).^67 Human SMCs were infected with virus expressing wild type or mutant human PKG1α (containing the R177Q mutation); the MOI was 3-10 and titrated to produce wild type and mutant kinase at 2-3 fold the level of endogenous PKG1 at 72 h post infection. […] For knock-down of NOX2 and NOX4, SMCs were infected with adenovirus expressing shNOX2 or shNOX4 oligomers (downstream of the U6 promoter) at an MOI of 100; H2O2 production and NADPH oxidase activity assays were performed 48 h later (as described below).
compound,measurement,setting,value
"Nc1nc2c(nc(Sc3ccc(Cl)cc3)n2[C@@H]2O[C@@H]3COP(=O)(O)O[C@H]3[C@H]2O)c(=O)[nH]1 [8-CPT-cGMP, 8-(4-chlorophenylthio)cGMP]",relaxation of pre-contracted aortic rings in response to the agent,"aortic rings; Prkg1^RQ/+ versus wild type aortas, rings pre-contracted with PGF2α",reduced in the mutant mice compared to wild type mice
CN(C)c1cccc(-c2c3c(=O)n(-c4ccccc4Cl)[nH]c3cc(=O)n2C)c1 [GKT137831],H2O2 production in PKG1^RQ-expressing cells,human aortic SMCs [1],reduced H2O2 production in the PKG1^RQ-expressing cells to a level found in control cells
same,PKG1^RQ-induced increase in DNA oxidation (pro-oxidant effect of PKG1^RQ),human aortic SMCs [2],blocked
same,growth-inhibitory effect of PKG1^RQ (SMC proliferation),"human aortic SMCs [3]; human SMCs expressing PKG1^RQ, growth factor-induced proliferation",partly prevented
same,pro-apoptotic effect of PKG1^RQ (SMC apoptosis),human aortic SMCs [4],partly prevented
"CC(=O)N[C@@H](CS)C(=O)O [NAC, N-acetylcysteine]",aortic pressure gradients after TAC surgery,Prkg1^RQ/+ mice; NAC-treated mice,did not affect
same,pre-stenotic aortic dilation after TAC,Prkg1^RQ/+ mice; NAC-treated mice,did not affect
same,survival after TAC compared to untreated mice,"Prkg1^RQ/+ mice; NAC-treated mutant mice, 14 d after TAC",trend towards improved survival; also recorded: its effect on mortality was limited
same,"TAC-induced aortic pathological changes, including media thinning","Prkg1^RQ/+ mice; Prkg1^RQ/+ mice, 1 mg/ml NAC in drinking water four weeks prior to and two weeks after TAC",largely prevented; also recorded: effective in ameliorating aortic wall injury after TAC
same,oxidative stress after TAC,"Prkg1^RQ/+ mice; Prkg1^RQ/+ mice, NAC four weeks prior to and two weeks after TAC",reduced oxidative stress
same,effect in wild type mice after TAC,"Prkg1^RQ/+ mice; wild type mice, NAC four weeks prior to and two weeks after TAC",no obvious effect
"CCCc1nn(C)c2c(=O)[nH]c(-c3cc(S(=O)(=O)N4CCN(C)CC4)ccc3OCC)nc12 [sildenafil, reference compound]",SMC proliferation,"human aortic SMCs [3]; human aortic SMCs, drug combination of sildenafil and NO donor",inhibited SMC proliferation
same,JNK activation,human aortic SMCs [5],induced JNK activation
same,VASP phosphorylation,human aortic SMCs [5],increased VASP phosphorylation
prostaglandin F2α,"concentration required to pre-contract aortic rings, mutant mice","aortic rings; eight month-old Prkg1^RQ/+ mice, n=5 vessels",2.27 ± 0.86 µM
same,"concentration required to pre-contract aortic rings, wild type mice","aortic rings; eight month-old wild type mice, n=5 vessels",2.15 ± 0.17 µM
